{
  "source": "patent US5700906A",
  "about": "“Immunogenic peptide antigen corresponding to plasmodium vivax circumsporozoite protein” (New York University, priority 1987, dated 1997)",
  "key": {"monoclonal antibody 2F2": {"system": "monoclonal antibody 2F2", "assay": "Inhibition of 2F2 binding to immobilized (DRADGQPAG)2 by synthetic peptides", "details": "competing peptide 25 micrograms/ml", "text": "(§1) Monoclonal-antibody 2F2 from Example 5 was serially diluted in PBS-BSA (indicated in FIG. 5 by black triangles); or in PBS-BSA containing 25 micrograins/ml of synthetic peptide (NANP)3 (indicated by open triangles); or in PBS-BSA containing 25 micrograms/ml of the synthetic peptide of Example 4, i.e. (DRADGQPAG)2 (indicated by black circles).\n(§2) An unrelated monoclonal-antibody 2AlO (anti-falciparum CS protein) was serially diluted in PBS-BSA (indicated by open squares). […] of each dilution were delivered to the bottom of microtiter plates which had previously been coated with a synthetic peptide (DRADGQPAG)2 saturated with 1% BSA. After 1 hour of incubation, the wells were washed with PBS-BSA in 50 microliters of ^125 I-labelled affinity-purified goat anti-mouse IgG (10^5 cpm; specific activity about 2×10^6 cpm/microgram). After an additional hour of incubation, the wells were washed with PBS-BSA and counted."}, "[1]": {"system": "binding of a monoclonal antibody to extracts of sporozoites from a New Guinea vivax malaria", "assay": "Competition of peptide with monoclonal antibody binding to New Guinea vivax sporozoite extracts", "set-up": "species or system P. vivax", "text": "Thus, although the P. vivax CS gene was isolated from a Brazilian strain of P. vivax, the epitope deduced from the sequence of the cloned gene appears to be present in all P. vivax CS proteins so far studied. The characterization of this gene and its encoded amino acid sequence allows synthesis of large amounts of the repetitive epitope and other antigenically active regions of the P. vivax CS protein and development of a protective vaccine using peptides corresponding to such regions."}, "[2]": {"system": "anti-P. falciparum antibody 2AlO", "assay": "Inhibition of binding of anti-P. falciparum antibody 2A10 to (NANP)3", "text": "as §1, §2\nIn other similar experiments, the binding of the anti-P. falciparum antibody 2AlO to the corresponding epitope (NANP)3 was not inhibited by the synthetic peptide (DRADGQPAG)2.^1"}, "[3]": {"system": "binding of monoclonal antibody 2F2 to immobilized P. vivax sporozoite extract", "assay": "Inhibition of the binding of labelled monoclonal antibody 2F2 to immobilized P. vivax extracts", "details": "at 0: 16,387 ± 1,085 cpm", "method": "100,000 cpm of 2F2 antibody labelled by ^125 I having a specific activity of about 2×10^6 cpm/microgram was diluted in PBS containing 1% BSA. The buffer also contained varying amounts of the synthetic peptide. The mixture was added to microtiter wells coated with P. vivax sporozoite extract. After one hour incubation in room temperature, the wells were washed three times with PBS containing 1% BSA and counted in the gamma counter."}, "porcine elastase": {"system": "porcine elastase", "assay": "Elastase treatment of CS protein, reactivity with monoclonal antibodies", "assay_type": "biochemical", "text": "(c) One possible reading frame coded for an alanine-rich peptide."}, "[4]": {"system": "binding of monoclonal antibody (2G3) to the CS protein of P. knowlesi", "assay": "12-MER inhibition of binding of monoclonal antibody 2G3 to the CS protein of P. knowlesi", "text": "Wells of microtiter plates were coated with the monoclonal antibody 2G3 washed with Tween-20, saturated with BSA as described supra. In one series of tubes, the 12-MER was serially diluted in PBS-BSA-Tween 20. In a second series of tubes, an extract of P. knowlesi sporozoites (prepared as described by Cochrane et al., supra) was serially diluted in PBS-BSA-Tween20. Aliquots of each dilution of sporozoites were mixed with equal volumes of all dilutions of 12-MER. 30 μI of these mixtures were then added to the bottom of the 2G3-coated wells. As positive and negative controls, 30 μl aliquots of sporozoite dilutions mixed with PBS-BSA-Tween 20 were added to other wells which had been precoated with 2G3 or with a non-relevant monoclonal antibody. After overnight incubation in the refrigerator, the wells were washed and 50 μl ([…]) of ^125 I-labeled 2G3 diluted in PBS-BSA-Tween 20 were added. Following an additional incubation at room temperature for 1 hour, the wells were washed and counted in a gamma counter."}, "monoclonal antibody 2G3": {"system": "monoclonal antibody 2G3", "assay": "Two-site immunoradiometric assay performed with monoclonal antibody 2G3 and synthetic peptides", "assay_type": "binding", "method": "The two synthetic peptides described in Example 7 were used in these studies. One of them was composed of the 12 amino acid sequence. H2 N-GlnAIaGlnGlyAspGlyAlaAsnAlaGlyGlnPro-COOH (12-MER) and the other was a dimer of the same sequence (24-MER). […] The assay was performed as follows:\nWells of microtiter plates (Falcon 3911) were incubated overnight at 4° C. with 50 μl of a 10 μg/ml solution in PBS of the monoclonal 2G3 anti-CS protein of P. knowlesi. The wells were washed with PBS and then incubated for 2 hours at room temperature, with PBS-Tween 20 (0.05% (w/v), and then for 3 additional hours with PBS-BSA (1% (w/v)). The synthetic peptides were diluted serially in PBS-BSA-Tween 20, and 30 μl aliquots of the dilutions were delivered to the bottom of individual wells. The plates were incubated overnight in the refrigerator, washed with PBS-BSA-Tween 20, and incubated with […] (10 ng) of ^125 I-labeled monoclonal antibody 2G3 diluted in PBS-BSA-Tween 20 (about 100,000 cpm). Controls consisted of plates coated with a non-relevant monoclonal antibody of the same isotype as 2G3."}},
  "note": "Where two headings read alike, the source gives them in different places. Where no end group is shown, it is not given here.",
  "data": [
    {"substance": "H-(Asp-Gly-Gln-Pro-Ala-Gly-Asp-Arg-Ala)2 [(DRADGQPAG)2]", "values": [
      {"measurement": "inhibition of binding of 2F2 to immobilized (DRADGQPAG)2", "setting": "monoclonal antibody 2F2", "result": "totally inhibited"},
      {"measurement": "competition with binding of monoclonal antibody to sporozoite extracts", "setting": "[1]", "result": "can compete"},
      {"measurement": "inhibition of binding of 2AlO to (NANP)3", "setting": "[2]", "result": "not inhibited"},
      {"measurement": "Bound 125I-labeled 2F2", "setting": "[3]; synthetic peptide 0.2 micrograms/ml", "result": "3,146 cpm"},
      {"measurement": "Bound 125I-labeled 2F2", "setting": "[3]; synthetic peptide 2 micrograms/ml", "result": "2,130 cpm"},
      {"measurement": "Bound 125I-labeled 2F2", "setting": "[3]; synthetic peptide 20 micrograms/ml", "result": "1,091 cpm"},
      {"measurement": "Bound 125I-labeled 2F2", "setting": "[3]; synthetic peptide 200 micrograms/ml, mean of counts in four wells", "result": 842, "unit": "cpm"}
    ]},
    {"substance": "OOC-Ala Ala Pro Ala", "values": [
      {"measurement": "inactivation of CS protein by elastase in presence of inhibitor", "setting": "porcine elastase", "result": "reversed"}
    ]},
    {"substance": "QAQGDGANAGQP [12-MER, H2 N-GlnAIaGlnGlyAspGlyAlaAsnAlaGlyGlnPro-COOH]", "values": [
      {"measurement": "inhibition of interaction of P. knowlesi CS protein with monoclonal antibody", "setting": "[4]", "result": "inhibited, in a dose-dependent fashion"},
      {"measurement": "Amount of 2G3 bound in the presence of 12-MER inhibitor", "setting": "[4]; 10^3 sporozoites/ml, 12-MER 0.08 mg/ml, 156 cpm at 0", "result": 72, "unit": "cpm"},
      {"measurement": "Amount of 2G3 bound in the presence of 12-MER inhibitor", "setting": "[4]; 10^3 sporozoites/ml, 12-MER 0.6 mg/ml, 156 cpm at 0", "result": 0, "unit": "cpm"},
      {"measurement": "Amount of 2G3 bound in the presence of 12-MER inhibitor", "setting": "[4]; 10^3 sporozoites/ml, 12-MER 5.0 mg/ml, 156 cpm at 0", "result": 37, "unit": "cpm"},
      {"measurement": "Amount of 2G3 bound in the presence of 12-MER inhibitor", "setting": "[4]; 10^4 sporozoites/ml, 12-MER 0.08 mg/ml, 1353 cpm at 0", "result": 102, "unit": "cpm"},
      {"measurement": "Amount of 2G3 bound in the presence of 12-MER inhibitor", "setting": "[4]; 10^4 sporozoites/ml, 12-MER 0.6 mg/ml, 1353 cpm at 0", "result": 70, "unit": "cpm"},
      {"measurement": "Amount of 2G3 bound in the presence of 12-MER inhibitor", "setting": "[4]; 10^4 sporozoites/ml, 12-MER 5.0 mg/ml, 1353 cpm at 0", "result": 3, "unit": "cpm"},
      {"measurement": "Amount of 2G3 bound in the presence of 12-MER inhibitor", "setting": "[4]; 10^5 sporozoites/ml, 12-MER 0.08 mg/ml, 4390 cpm at 0", "result": 1221, "unit": "cpm"},
      {"measurement": "Amount of 2G3 bound in the presence of 12-MER inhibitor", "setting": "[4]; 10^5 sporozoites/ml, 12-MER 0.6 mg/ml, 4390 cpm at 0", "result": 781, "unit": "cpm"},
      {"measurement": "Amount of 2G3 bound in the presence of 12-MER inhibitor", "setting": "[4]; 10^5 sporozoites/ml, 12-MER 5.0 mg/ml, 4390 cpm at 0", "result": 361, "unit": "cpm"},
      {"measurement": "Amount of 2G3 bound in the presence of 12-MER inhibitor", "setting": "[4]; 10^6 sporozoites/ml, 12-MER 0.08 mg/ml, 5582 cpm at 0", "result": 3893, "unit": "cpm"},
      {"measurement": "Amount of 2G3 bound in the presence of 12-MER inhibitor", "setting": "[4]; 10^6 sporozoites/ml, 12-MER 0.6 mg/ml, 5582 cpm at 0", "result": 3018, "unit": "cpm"},
      {"measurement": "Amount of 2G3 bound in the presence of 12-MER inhibitor", "setting": "[4]; 10^6 sporozoites/ml, 12-MER 5.0 mg/ml, 5582 cpm at 0", "result": 1099, "unit": "cpm"},
      {"measurement": "inhibition of interaction of P. knowlesi CS protein with monoclonal antibody", "setting": "[4]; listed as monomer", "result": "compete with and specifically inhibit"},
      {"measurement": "two-site radioimmunoassay reactivity", "setting": "monoclonal antibody 2G3; monoclonal antibody to P. knowlesi CS protein", "result": "did not bind"},
      {"measurement": "Amount of radiolabeled 2G3 bound", "setting": "monoclonal antibody 2G3; peptide 5 ug/ml", "result": 40, "unit": "cpm"},
      {"measurement": "Amount of radiolabeled 2G3 bound", "setting": "monoclonal antibody 2G3; peptide 50 ug/ml", "result": 103, "unit": "cpm"},
      {"measurement": "Amount of radiolabeled 2G3 bound", "setting": "monoclonal antibody 2G3; peptide 500 ug/ml", "result": 157, "unit": "cpm"},
      {"measurement": "Amount of radiolabeled 2G3 bound", "setting": "monoclonal antibody 2G3; peptide .5 ug/ml", "result": 0, "unit": "cpm"}
    ]}
  ]
}
